# Measurements as given in patent publication EP4534086A1, “TREATMENT OF LEUKODYSTROPHY” (priority 2023, dated 2025).
# Experiments:
# [1] = system: Vimentin, Iba1 and IL-6 / MBP and MOG; assay: Gene-expression signature from RT-qPCR of cerebellum (inflammation/myelin ratio); assay type: in vivo, mice; settings: donepezil vs vehicle
# Protocol: Total RNAs were isolated from cerebellum tissues using the Nucleospin® total RNA isolation kit (Macherey-Nagel, Germany). The concentrations of isolated RNA from each sample were assessed using a NanoDrop 2000 Spectrophotometer (Thermo Scientific, USA). 10 µL of the isolated RNA were equalized to 20 microlitres (µL) using RNase-free water. Then, the cDNA was synthesized by reverse transcription using the High-Capacity cDNA manufacture kit (Applied Biosystems™, Thermo Fisher Scientific, USA). Equal volumes of the isolated RNA and cDNA mastermix were mixed, centrifuged, and loaded in the thermal cycler (T100™, BIO-RAD, USA). The cDNA was diluted 1:2 with RNase-free water and stored at -20 deg.°C prior to qPCR analysis. The manufactured cDNA was amplified using multi-target qPCR. cDNA and PCR mastermix, containing the target and endogenous primers, as well as the Taqman mastermix, were loaded on a 96-well PCR fast plate (Thermo Fisher Scientific, USA) in an ice block. […] Gene expression data were analyzed using the Livak and Schmittgen (2001) ΔΔCt method, to produce a relative quantity (RQ) value of target gene expression relative to GAPDH expression as per formula in equations 1-3: (1) ΔCt=Ct target- Ct endogenous; (2) ΔΔCt= ΔCt sample- ΔCt control sample; (3) RQ=2-ΔΔCt.
# Data normality was assessed using the Shapiro-Wilk test. […]
# Sig-1R = target: T1, Sig-1R (Rattus norvegicus, UniProt Q9R0C9); settings: rats; cited from earlier work
# T1 construct: host or cells: living rats
# T1 sequence (Q9R0C9 whole entry): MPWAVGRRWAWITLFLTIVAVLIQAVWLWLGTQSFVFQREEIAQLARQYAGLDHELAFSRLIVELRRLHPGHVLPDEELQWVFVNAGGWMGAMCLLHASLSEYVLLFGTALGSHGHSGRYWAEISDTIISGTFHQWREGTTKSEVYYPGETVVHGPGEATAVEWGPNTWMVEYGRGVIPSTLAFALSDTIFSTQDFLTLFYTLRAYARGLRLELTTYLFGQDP
smiles,measurement,setting,value
"COc1cc2c(cc1OC)C(=O)C(CC1CCN(Cc3ccccc3)CC1)C2 (racemic) [donepezil, (RS)-2-[(1-Benzyl-4-piperidyl)methyl]-5,6-dimethoxy-2,3-dihydroinden-1-one]","gene-expression-signature (Vimentin, Iba1 and IL-6 divided by MBP and MOG)","[1]; twitcher mice, p=0.0016",significant decrease
same,"gene-expression-signature (Vimentin, Iba1 and IL-6 divided by MBP and MOG)","[1]; wild-type mice, p=0.2495",no significant difference
same,dose corresponding to EC50 for receptor occupancy,Sig-1R,1.07 mg/kg
